Reference: patent US20020081266A1, “Spray dried powders for pulmonary or nasal administration” (Norton Healthcare Ltd., priority 1999, published 2002)

Tests used:
[1] = Scanning electron microscopy (SEM) particle diameter; format: physicochemical; conditions: for Particle diameters by SEM: spray dried from ethanolic solution
Source text: Scanning Electron Microscopy (SEM)
The scanning electron microscope used was the Hitachi S-3500N variable pressure scanning electron microscope. Samples were mounted and sputtered with gold spray for SEM.
The scanning electron microscope used was the Hitachi S-3500N variable pressure scanning electron microscope. Samples were mounted on aluminium stubs and spluttered with gold spray for SEM.

[2] = starting material
Experimental: Thermogravimetric Analysis (TGA)
Thermogravimetric analysis was carried out using a Mettler TG 50 linked to a Mettler MT5 balance. Data was processed using Mettler Toledo STAR software Version 5.1 with a Solaris operating system. Sample weights were between 5 and 10 mg and analysis was carried out under nitrogen purge. The scans were run from 30 to 350° C. at a heating rate of 10° C./minute. Two TGA scans were obtained for each system.

Row | Compound | Average particle diameter by SEM ([1]; starting material, not spray dried) | Temperature from which TGA mass loss due to degradation occurs [2] [°C] | Particle diameters by SEM [1] [μm]
1 | COc1ccc(C[C@@H](C)NC[C@H](O)c2ccc(O)c(NC=O)c2)cc1.COc1ccc(C[C@@H](C)NC[C@H](O)c2ccc(O)c(NC=O)c2)cc1.O=C(O)/C=C/C(=O)O [Formoterol fumarate, formoterol fumarate] | 0.5-5 μm | ≥ 150 | –
2 | CC(C)[N+]1(C)[C@@H]2CC[C@H]1CC(OC(=O)C(CO)c1ccccc1)C2.[Br-] (stereo partly shown) [Ipratropium bromide, ipratropium bromide] | – | – | ≥ 60
3 | salbutamol sulphate | – | – | < 3
